Measured values published in patent publication US20050240034A1, “Artemisinin-based peroxide compounds as broad spectrum anti-infective agents” (priority 2002, published 2005).
≈ marks a conversion by molar mass, not a printed value. Like-named read-outs stand apart in the source and are kept apart here.

How the values were obtained:
[1] = test system: P. falciparum Sierra Leone D6 clone; assay: WHO/TDR in vitro antimalarial screen (uptake of radiolabeled nucleic acid precursor), D6 clone; assay type: cell-based, Plasmodium falciparum; conditions: mefloquine-resistant, chloroquine-sensitive, second value in brackets not explained
Description: (§1) All test compounds are solubilized in DMSO and diluted 400 fold (to rule out a DMSO effect) in culture medium with plasma for a starting concentration of at least 12,500 ng/mL. Drugs are subsequently diluted five fold using the Cetus Pro/Pette system utilizing a range of concentrations from 0.8 ng/mL to 12,500 ng/mL. Fifty percent inhibitory concentrations are reported in ng/mL.
(§2) The D6 African P. falciparum clone is sensitive to chloroquine, pyrimethamine and sulfadoxine but resistant to mefloquine. The W2 Indochina P. falciparum clone is resistant to chloroquine, pyrimethamine and sulfadoxine but sensitive to mefloquine. The K1 P. falciparum is a resistant strain, where NF54 P. falciparum is a sensitive strain.

[2] = test system: P. falciparum Indochina W2 clone; assay: WHO/TDR in vitro antimalarial screen, W2 clone; assay type: cell-based, Plasmodium falciparum; conditions: chloroquine-resistant, mefloquine-sensitive, second value in brackets not explained
Description: as §1, §2

P. falciparum K1 = assay: WHO/TDR in vitro antimalarial screen, K1; assay type: cell-based, Plasmodium falciparum; conditions: K1, chloroquine-resistant
Description: (§3) […]. All test compounds are solubilized in DMSO and diluted 400 fold (to rule out a DMSO effect) in culture medium with plasma for a starting concentration of at least 12,500 ng/mL. Drugs are subsequently diluted five fold using the Cetus Pro/Pette system utilizing a range of concentrations from 0.8 ng/mL to 12,500 ng/mL. Fifty percent inhibitory concentrations are reported in ng/mL.
as §2

P. falciparum NF54 = assay: WHO/TDR in vitro antimalarial screen, NF54; assay type: cell-based, Plasmodium falciparum; conditions: NF54, chloroquine-sensitive, second value in brackets not explained
Description: as §3, §2

P. berghei N = assay: in vivo Peter's 4-day antimalarial test in mice, P. berghei N; design: P. berghei N P.O. ED50 / P. berghei N P.O. ED90: unit not given beside the values; conditions: mice, 4-day test; for P. berghei N P.O. ED50 / P. berghei N P.O. ED90 / P. berghei N S.C. ED50 / P. berghei N S.C. ED90: unit not given; for ED50: Plasmodium berghei, 96 h, unit inferred
Description: (§4) The parasitemia is determined on the day following the last treatment—day 4 to determine qualitatively the presence and degree of activity at the screening dose.

P. yoelli ssp. NS = assay: in vivo 4-day antimalarial test in mice, P. yoelli ssp. NS; conditions: subcutaneous
Description: as §4

[3] = test system: P. falciparum D6 (Sierra Leone); assay: antimalarial parasite LDH (pLDH) assay, D6; assay type: cell-based, Plasmodium falciparum; conditions: for IC50: pLDH assay, Table 5, read-out: P. falciparum (D6 Clone) IC50; for P. falciparum (IC50) D6: LDH assay, Table 6; for S. I. (D6): Selectivity Index = IC50 (Vero cells)/IC50 (P. falciparum)
Description: (§5) The Thad Cochran National Center for Natural Products Research (University of Mississippi) in vitro antimalarial screen was conducted using an enzyme assay for detection of P. falciparum (see procedure below). This assay is based on the observation that lactate dehydrogenase (LDH) of P. falciparum is distinguishable from host LDH activity. P. falciparum LDH rapidly uses 3-acetyl pyridine nicotinamide adenine dinucleotide (APAD) as a coenzyme in the biotransformation of […].^38 The same process is carried out in human red blood cells at a very slow rate.
(§6) The “Antimalarial parasite LDH assay” is currently being conducted according the following procedure: prepare a suspension of RBC with a 2% parasitemia and 2% hematocrit in malaria complete medium. Dispense 200 μl aliquots of this suspension into each well of a 96 well microtiter plate. Add 10 μl volumes of the drugs to be tested in duplicate to the appropriate wells. Place the plates into humidified chamber and flush the cultures with a gas mixture consisting of 90% N2, 5% O2, and 5% CO2. Transfer the chamber containing the plates to an incubator, and incubate for 48 hours at 37° C. After 48 hours add 100 μl aliquots of the Malstat™ reagent to each well of a new 96-well microtiter plate Resuspend the cultures from the assay plate by mixing each well up and down several times. Remove 20 μl from each well of the resuspend culture and add to the plate containing the Malstat™ reagent. Incubate the plates at room temperature for 30 minutes. After 30 minutes, add to each well 20 μl of the 1:1 mixture of the NBT/PES solution (2 mg/ml and 0.1 mg/ml, respectively). Incubate the plates in the dark for 1 hour. Add 100 μl of 5% acetic acid solution to stop the reaction. The plate is then read at an endpoint of approximately 650 nm. The dose response curves are generated using Microsoft Excel.
(§7) Antimalarial activity of the analogues was determined in vitro on chloroquine sensitive (D)6, Sierra Leone) and resistant (W2, IndoChina) strains of Plasmodium falciparum. The 96 well microplate assay is based on evaluation of the effect of the compounds on the growth of asynchronous cultures of P. falciparum, determined by the assay of parasite lactate dehydrogenase (pLDH) activity.^28 The appropriate dilutions of the compounds were prepared in DMSO or RPMI-1640 medium and added to the cultures of P. falciparum (2% hematocrit, 2% parasitemia) set up in clear flat bottomed 96 well plates. The plates were placed into the humidified chamber and flushed with a gas mixture of 90% N2, 5% CO2 & 5% O2. The cultures were incubated at 37° C. for 48 hours. Growth of the parasite in each well was determined by pLDH assay using Malstat® reagent. The medium and RBC controls were also set-up in each plate. The standard antimalarial agents, chloroquine and artemisinin, were used as the positive controls while DMSO was tested as the negative control.

[4] = test system: P. falciparum W2 (IndoChina); assay: antimalarial parasite LDH (pLDH) assay, W2; assay type: cell-based, Plasmodium falciparum; conditions: for IC50: pLDH assay, Table 5, read-out: P. falciparum (W2 Clone) IC50; for P. falciparum (IC50) W2: LDH assay, Table 6; for S. I. (W2): Selectivity Index = IC50 (Vero cells)/IC50 (P. falciparum)
Description: as §5, §6
as §7, with “plate.” for “plate. The standard antimalarial agents, chloroquine and artemisinin, were used as the positive controls while DMSO was tested as the negative control.”

[5] = test system: Leishmania donovani promastigotes expressing firefly luciferase; assay: antileishmanial luciferase assay on transgenic promastigotes; assay type: cell-based; conditions: Table 1 (artemisinin analogues); NA = not active up to 125 μg/ml; read-out: Antileishmanial activity IC50
Description: Antileishmanial activity of the compounds was tested on a transgenic cell line of Leishmania donovani promastigotes expressing firefly luciferase.^29a In a 96 well microplate assay, compounds with appropriate dilution were added to the leishmania promastigotes culture (2×10^6 cell/mL). The plates were incubated at 26° C. for 72 hours and growth of leishmania promastigotes was determined by luciferase assay with Steady Glo® reagent (Promega, USA). Pentamidine and Amphotericin B were used as standard antileishmanial agents. The analogues were simultaneously tested for cytotoxicity on VERO cells (monkey kidney fibroblast) by Neutral Red assay.^29b IC50 values for the compounds were computed from the growth inhibition curve.

CCN(CC)CCCC(C)Nc1ccnc2cc(Cl)ccc12 (centres unmarked) [Chloroquine, chloroquine, reference compound]
P. falciparum (IC50) D6 [1]: 7.58 ng/mL | P. falciparum (IC50) W2 [2]: 118.04 ng/mL | P. falciparum (IC50) K1 (P. falciparum K1): 0.07901 mg/L | P. falciparum (IC50) NF54 (P. falciparum NF54): 7.36 ng/mL | P. berghei N P.O. ED50 (P. berghei N; oral): 1.7 | P. berghei N P.O. ED90 (P. berghei N; oral): 3.1 | P. berghei N S.C. ED50 (P. berghei N; subcutaneous): 1.5 | P. berghei N S.C. ED90 (P. berghei N; subcutaneous): 3 | P. yoelli ssp. NS (S.C.) ED50 (P. yoelli ssp. NS; unit inferred): 1.6 mg/kg | P. yoelli ssp. NS (S.C.) ED90 (P. yoelli ssp. NS; unit inferred): 28 mg/kg | IC50 [3]: 0.0165 µM | IC50 [4]: 0.233 µM

CC1CCC2C(CCCc3ccc(Cl)cc3)COC3OC4(C)CCC1C32OO4 (centres unmarked) [Compound 11]
P. falciparum (IC50) D6 [1]: 1.9 (1.9) ng/mL | P. falciparum (IC50) W2 [2]: 3.0 (2.2) ng/mL | P. berghei N P.O. ED50 (P. berghei N; oral): 1.0 | P. berghei N P.O. ED90 (P. berghei N; oral): 2.1 | P. berghei N S.C. ED50 (P. berghei N; subcutaneous): 0.7 | P. berghei N S.C. ED90 (P. berghei N; subcutaneous): 1.2 | P. yoelli ssp. NS (S.C.) ED50 (P. yoelli ssp. NS; unit inferred): 0.6 mg/kg | P. yoelli ssp. NS (S.C.) ED90 (P. yoelli ssp. NS; unit inferred): 1 mg/kg

OC(c1cc(C(F)(F)F)nc2c(C(F)(F)F)cccc12)C1CCCCN1 (centres unmarked) [Mefloquine, mefloquine, reference compound]
IC50 ([1]; Plasmodium falciparum): 0.0456 mg/L (≈ 0.12 µM) | IC50 ([2]; Plasmodium falciparum): 0.0341 mg/L (≈ 0.09 µM) | IC50 (P. falciparum K1; Plasmodium falciparum): 0.0203 mg/L (≈ 0.0538 µM) | IC50 (P. falciparum NF54; Plasmodium falciparum): 0.0354 mg/L (≈ 0.0935 µM) | ED50 (P. berghei N; oral, read-out: P. berghei N P.O. ED50): 1.1 mg/kg | ED50 (P. berghei N; sc, subcutaneous, read-out: P. berghei N S.C. ED50): 1.5 mg/kg | P. berghei N P.O. ED90 (P. berghei N; oral): 2.3 | P. berghei N S.C. ED90 (P. berghei N; subcutaneous): 3.8 | ED50 (P. yoelli ssp. NS; Plasmodium yoelii, sc, unit inferred, read-out: P. yoelli ssp. NS (S.C.) ED50): 2.3 mg/kg | IC50 ([3]; Plasmodium falciparum, D6): 0.17 µM | IC50 ([4]; Plasmodium falciparum, W2): 0.195 µM

(+)-Octahydro3,6α-dimethyl-3,12-epoxy-9β-(3′-(3,5-difluorophenyl)propyl)-12H-pyrano[4,3j]-1,2-benzodioxepin [Compound 41]
P. falciparum (IC50) W2 [2]: 6.70 ng/mL | P. berghei N P.O. ED50 (P. berghei N; oral): <10 | P. berghei N P.O. ED90 (P. berghei N; oral): <10 | P. berghei N S.C. ED50 (P. berghei N; subcutaneous): <10 | P. berghei N S.C. ED90 (P. berghei N; subcutaneous): <10 | P. falciparum (IC50) D6 [3]: 0.0038 mg/L | S. I. (D6) ([3]; D6): >125 | P. falciparum (IC50) W2 [4]: 0.0023 mg/L | S. I. (W2) ([4]; W2): >207

(+)-Octahydro-3,6α-dimethyl-3,12-epoxy-9β-(3′-(3,5-bistrifluoromethylphenyl)propyl)-12H-pyrano[4,3j]-1,2-benzodioxepin [Compound 40]
P. falciparum (IC50) W2 [2]: 7.11 ng/mL | P. berghei N P.O. ED50 (P. berghei N; oral): <10 | P. berghei N P.O. ED90 (P. berghei N; oral): <10 | P. berghei N S.C. ED50 (P. berghei N; subcutaneous): <10 | P. berghei N S.C. ED90 (P. berghei N; subcutaneous): <10 | P. falciparum (IC50) D6 [3]: 0.012 mg/L | S. I. (D6) ([3]; D6): >40 | P. falciparum (IC50) W2 [4]: 0.0095 mg/L | S. I. (W2) ([4]; W2): >50

(+)-Octahydro-3,6α-dimethyl-3,12-epoxy-9β-(3′-(m-fluorophenyl)propyl)-12H-pyrano[4,3j]-1,2-benzodioxepin [Compound 37]
P. falciparum (IC50) D6 [1]: 8.28 ng/mL | P. falciparum (IC50) W2 [2]: 26.83 ng/mL | P. falciparum (IC50) K1 (P. falciparum K1): 0.01156 mg/L | P. falciparum (IC50) NF54 (P. falciparum NF54): 41.76 (27.33) ng/mL | P. berghei N P.O. ED50 (P. berghei N; oral): 0.9 (0.38-1.9) | P. berghei N P.O. ED90 (P. berghei N; oral): 3.4 (1.45-7.5) | P. berghei N S.C. ED50 (P. berghei N; subcutaneous): 0.46 (0.19-1.1) | P. berghei N S.C. ED90 (P. berghei N; subcutaneous): 0.85 (0.36-2.3) | P. yoelli ssp. NS (S.C.) ED50 (P. yoelli ssp. NS; unit not given): 0.58 (0.45-1.0) | P. yoelli ssp. NS (S.C.) ED90 (P. yoelli ssp. NS; unit not given): 1.00 (0.8-1.8) | P. falciparum (IC50) D6 [3]: 0.011 mg/L | S. I. (D6) ([3]; D6): >43.0 | P. falciparum (IC50) W2 [4]: 0.012 mg/L | S. I. (W2) ([4]; W2): >40 | IC50 [5]: 88.3 µM

quinine [reference compound]
P. falciparum (IC50) K1 (P. falciparum K1): 0.0996 mg/L | P. falciparum (IC50) NF54 (P. falciparum NF54): 9.08 ng/mL | P. berghei N P.O. ED50 (P. berghei N; oral): 71 | P. berghei N P.O. ED90 (P. berghei N; oral): 118 | P. berghei N S.C. ED50 (P. berghei N; subcutaneous): 25 | P. berghei N S.C. ED90 (P. berghei N; subcutaneous): 190 | P. yoelli ssp. NS (S.C.) ED50 (P. yoelli ssp. NS; unit inferred): 128 mg/kg
